Activity data for 16 molecules are collected here from ChEMBL document CHEMBL5120767, “Phlegmacaritones A and B, a Pair of Serratane-Related Triterpenoid Epimers with an Unprecedented Carbon Skeleton from Phlegmariurus carinatus” (J Nat Prod, 2022).

The source made the active and inactive calls. The rule behind the calls is not given here.

Common to all, as to format: functional, cell-based
For experiment [1], the system named is ONS. The experiment can be described thus: Effect on human ONS cells assessed as increase in LC3b intensity at 5 uM after 24 hrs by fluorescence microscopic analysis.
Experiment [2] deals with ONS. The experiment is described as follows: Effect on human ONS cells assessed as decrease in alpha-tubulin intensity at 5 uM after 24 hrs by fluorescence microscopic analysis.
Experiment [3] concerns ONS. The experiment can be described thus: Induction of phenotypical changes in human ONS cells at 5 uM after 24 hrs.
In experiment [4] the test system is ONS. The experiment is described as follows: Effect on human ONS cells assessed as decrease in EEA1-marked early endosomes at 5 uM after 24 hrs by fluorescence microscopic analysis.
Experiment [5] deals with ONS. The experiment can be described thus: Effect on human ONS cells assessed as increase in mitochondrial intensity at 5 uM after 24 hrs by fluorescence microscopic analysis.
Experiment [6] relates to ONS. The experiment can be described thus: Effect on human ONS cells assessed as increase in alpha-tubulin intensity at 5 uM after 24 hrs by fluorescence microscopic analysis.
In experiment [7] the test system is ONS. The experiment can be described thus: Effect on human ONS cells assessed as increase in EEA1-marked early endosomes at 5 uM after 24 hrs by fluorescence microscopic analysis.

Consider `CC1(C)[C@H](O)CC[C@]2(C)[C@H]3CC[C@H]4[C@@](C)(CC[C@@H]5[C@]4(C)CC[C@@H](O)[C@]5(C)C(=O)O)C[C@@H]3C(=O)C[C@@H]12`, for which the result in the experiment with ONS [1], with ONS [2], with ONS [3], with ONS [4] and in the experiment on ONS [5] was Active.
For the molecule `CC1(C)[C@@H](OC(=O)CCc2ccc(O)c(O)c2)CC[C@@]2(C)[C@H]1CC[C@@]1(C)CC3CC[C@H]4C(C)(C)[C@@H](O)CC[C@]4(C)[C@H]3CC[C@@H]12` (stereo not given in full), the outcome with ONS [1], in the experiment with ONS [6], with ONS [4] and in the experiment on ONS [5] was Active.
For the molecule `CC1(C)[C@H](O)CC[C@]2(C)[C@H]3CC[C@H]4[C@@](C)(CC[C@@H]5[C@]4(C)CC[C@@H](O)[C@]5(C)CO)CC3=CC(=O)[C@@]12C`, in the experiment on ONS [7], the outcome was Active.
On the same count and under the same terms, for `C[C@@]12CC[C@@H]3[C@](C)(CC[C@@H](O)[C@]3(C)C(=O)O)[C@H]1CC[C@H]([C@@]1(C)CC[C@@H](O)[C@@]3(C)COC(=O)C[C@@H]31)C(=O)C2` the value was “Active”.
On the same count and under the same terms, for `C=C1C=C2C[C@]3(C)CC[C@@H]4[C@](C)(CC[C@@H](O)[C@]4(C)CO)[C@H]3CC[C@@H]2[C@@]2(C)CC[C@@H](O)[C@@](C)(CO)[C@]12C` the value was “Active”.
As for `C=C1C=C2C[C@]3(C)CC[C@H]4C(C)(C)[C@H](O)CC[C@]4(C)[C@H]3CC[C@@H]2[C@@]2(C)CC[C@@H](O)C(C)(C)[C@H]12`, the result with ONS [1], with ONS [6], in the experiment with ONS [4] and with ONS [5] was Active.
`C=C1C=C2C[C@]3(C)CC[C@@H]4[C@](C)(CC[C@@H](O)[C@]4(C)CO)[C@H]3CC[C@@H]2[C@@]2(C)CC[C@@H](O)C(C)(C)[C@H]12`: the outcome in the experiment with ONS [1], in the experiment on ONS [6], in the experiment with ONS [4] and with ONS [5] was Active.
`CC1(C)[C@@H](O)CC[C@]2(C)[C@H]3CC[C@H]4[C@@](C)(CC[C@@H]5[C@]4(C)CC[C@H](OC(=O)CCc4ccc(O)c(O)c4)[C@]5(C)CO)CC3CC[C@@H]12` (stereo not given in full): the outcome in the experiment on ONS [7] was Active.
Turning to `C=C1C=C2C[C@]3(C)CC[C@@H]4[C@](C)(CC[C@@H](O)[C@]4(C)C(=O)O)[C@H]3CC[C@@H]2[C@@]2(C)CC[C@@H](O)C(C)(C)[C@H]12`, the result in the experiment on ONS [1], with ONS [6], in the experiment with ONS [4] and in the experiment on ONS [5] was Active.
With `C[C@H]1CC(=O)[C@]23CCCN4CCC[C@]2(C4)C(=O)C[C@@H]3[C@H]1O`, in the experiment on ONS [3], the result was Active.
As for `C=C1C=C2C[C@]3(C)CC[C@H]4C(C)(C)[C@@H](O)CC[C@]4(C)[C@H]3CC[C@@H]2[C@@]2(C)CC[C@@H](O)[C@](C)(CO)[C@H]12`, the outcome with ONS [1], in the experiment on ONS [3], with ONS [6], with ONS [4] and in the experiment with ONS [5] was Active.
`CC1(C)[C@@H](O)CC[C@]2(C)[C@H]3CC[C@H]4[C@@](C)(CC[C@@H]5[C@]4(C)CC[C@H](O)[C@]5(C)COC(=O)CCc4ccc(O)c(O)c4)CC3=CC[C@@H]12`: the result in the experiment with ONS [1], in the experiment on ONS [6], with ONS [4] and in the experiment with ONS [5] was Active.
As to `CC1(C)[C@@H](OC(=O)CCc2ccc(O)c(O)c2)CC[C@@]2(C)[C@H]1CC[C@@]1(C)CC3CC[C@@H]4[C@](C)(CC[C@@H](O)[C@]4(C)CO)[C@H]3CC[C@@H]12` (stereo not given in full), the result in the experiment with ONS [1], in the experiment with ONS [6], with ONS [4] and with ONS [5] was Active.
Take `CC1(C)[C@H](O)CC[C@]2(C)[C@H]3CC[C@H]4[C@@](C)(CC[C@@H]5[C@]4(C)CC[C@@H](O)[C@]5(C)C(=O)O)C[C@H]3C(=O)C[C@@H]12`: the outcome in the experiment with ONS [1], in the experiment on ONS [6], with ONS [4] and in the experiment with ONS [5] was Active.
Turning to `C[C@@]12CC[C@@H]3[C@](C)(CC[C@@H](O)[C@]3(C)C(=O)O)[C@H]1CC[C@H]1[C@H](C2)C(=O)C[C@H]2[C@](C)(CO)[C@@H](O)CC[C@@]21C`, the result in the experiment with ONS [7] was Active.
On to `C=C1C=C2C[C@]3(C)CC[C@@H]4[C@](C)(CC[C@@H](O)[C@]4(C)CO)[C@H]3CC[C@@H]2[C@@]2(C)CC[C@@H](O)[C@](C)(CO)[C@H]12`, for which the outcome in the experiment on ONS [7] was Active.
